Laboratory results from patent US20240190880A1 (THE REGENTS OF THE UNIVERSITY OF MICHIGAN, priority 2021, published 2024).
Like-named read-outs stand apart in the source and are kept apart here.

Molecular target: T1, ER (Homo sapiens, UniProt P03372)
T1 construct: host or cells: T47D and MCF7 human breast cancer cells
T1 sequence (P03372 1-595): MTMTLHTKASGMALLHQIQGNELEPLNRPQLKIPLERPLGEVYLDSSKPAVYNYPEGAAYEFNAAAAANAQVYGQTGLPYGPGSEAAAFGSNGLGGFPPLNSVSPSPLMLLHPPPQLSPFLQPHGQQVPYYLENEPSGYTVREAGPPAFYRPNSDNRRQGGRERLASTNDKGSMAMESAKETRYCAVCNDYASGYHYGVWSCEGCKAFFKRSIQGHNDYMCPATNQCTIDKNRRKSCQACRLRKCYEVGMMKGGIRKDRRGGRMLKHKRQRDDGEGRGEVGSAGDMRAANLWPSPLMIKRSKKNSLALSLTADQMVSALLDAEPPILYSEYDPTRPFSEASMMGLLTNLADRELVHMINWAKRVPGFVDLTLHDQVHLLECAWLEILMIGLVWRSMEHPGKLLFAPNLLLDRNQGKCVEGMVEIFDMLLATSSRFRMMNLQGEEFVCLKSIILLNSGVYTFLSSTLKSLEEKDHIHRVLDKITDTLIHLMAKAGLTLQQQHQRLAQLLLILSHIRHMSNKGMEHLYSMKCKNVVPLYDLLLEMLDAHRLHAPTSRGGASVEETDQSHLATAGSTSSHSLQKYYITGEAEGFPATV
Experiment: ER degradation activity, in-cell western blot analysis in T47D cells
Format: cell-based
Summary of the method: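 ER protein remaining after 16 h compound exposure is quantified in T47D cells by in-cell western, with a no-primary-antibody background control. Values are percentages of DMSO-treated signal.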

[1] = compounds 16 hours, Table A does not say whether T47D or MCF7, read-out: Potency (DC50)
[2] = 16 hours, Table A does not say which cell line (T47D or MCF7), read-out: Potency (DC50)

SMILES	DC50 [1] [nM]	DC50 [2] [nM]
C[C@@H]1Cc2cc(O)ccc2[C@@H](c2c(F)cc(C(=O)N3CC4(CCC(CN5Cc6cc7c(cc6C5)C(=O)N(C5CCC(=O)NC5=O)C7=O)CC4)C3)cc2F)N1CC(F)F (stereo partly drawn) [E 464, 6-((2-(4-((1S,3R)-2-(2,2-difluoroethyl)-6-hydroxy-3-methyl-1,2,3,4-tetrahydroisoquinolin-1-yl)-3,5-difluorobenzoyl)-2-azaspiro[3.5]nonan-7-yl)methyl)-2-(2,6-dioxopiperidin-3-yl)-6,7-dihydropyrrolo[3,4-f]isoindole-1,3(2H,5H)-dione]	> 100	
C[C@@H]1Cc2cc(O)ccc2[C@@H](c2c(F)cc(OC3CC4(CCN(C(=O)CN5Cc6cc7c(cc6C5)C(=O)N(C5CCC(=O)NC5=O)C7=O)CC4)C3)cc2F)N1CC(F)F (stereo partly drawn) [E 455, 6-(2-(2-(4-((1S,3R)-2-(2,2-difluoroethyl)-6-hydroxy-3-methyl-1,2,3,4-tetrahydroisoquinolin-1-yl)-3,5-difluorophenoxy)-7-azaspiro[3.5]nonan-7-yl)-2-oxoethyl)-2-(2,6-dioxopiperidin-3-yl)-6,7-dihydropyrrolo[3,4-f]isoindole-1,3(2H,5H)-dione]	10 to 100	
C[C@@H]1Cc2c([nH]c3ccccc23)[C@@H](c2ncc(C3=CCC(C(=O)N4CCC(N5Cc6cc7c(cc6C5)C(=O)N(C5CCC(=O)NC5=O)C7=O)CC4)CC3)cc2F)N1CC(C)(F)F (stereo partly drawn) [E 483, 6-(1-(4-(6-((1S,3R)-2-(2,2-difluoropropyl)-3-methyl-2,3,4,9-tetrahydro-1H-pyrido[3,4-b]indol-1-yl)-5-fluoropyridin-3-yl)cyclohex-3-ene-1-carbonyl)piperidin-4-yl)-2-(2,6-dioxopiperidin-3-yl)-6,7-dihydropyrrolo[3,4-f]isoindole-1,3(2H,5H)-dione]	> 100	
C[C@@H]1Cc2c([nH]c3ccccc23)[C@@H](c2c(F)cc(N3CCC4(CCN(C(=O)CN5Cc6cc7c(cc6C5)C(=O)N(C5CCC(=O)NC5=O)C7=O)C4)C3)cc2F)N1CC(F)F (stereo partly drawn) [E 79, 6-(2-(7-(4-((1R,3R)-2-(2,2-difluoroethyl)-3-methyl-2,3,4,9-tetrahydro-1H-pyrido[3,4-b]indol-1-yl)-3,5-difluorophenyl)-2,7-diazaspiro[4.4]nonan-2-yl)-2-oxoethyl)-2-(2,6-dioxopiperidin-3-yl)-6,7-dihydropyrrolo[3,4-f]isoindole-1,3(2H,5H)-dione]		10 to 100
COc1cc([C@H]2CC[C@@H](C(=O)N3CCC(N4Cc5cc6c(cc5C4)C(=O)N(C4CCC(=O)NC4=O)C6=O)CC3)CC2)ccc1[C@@H]1c2[nH]c3ccccc3c2C[C@@H](C)N1CC(F)F (stereo partly drawn) [E 404, 6-(1-((1S,4s)-4-(4-((1R,3R)-2-(2,2-difluoroethyl)-3-methyl-2,3,4,9-tetrahydro-1H-pyrido[3,4-b]indol-1-yl)-3-methoxyphenyl)cyclohexane-1-carbonyl)piperidin-4-yl)-2-(2,6-dioxopiperidin-3-yl)-6,7-dihydropyrrolo[3,4-f]isoindole-1,3(2H,5H)-dione]	> 100	
C[C@@H]1Cc2c([nH]c3ccccc23)[C@@H](c2c(F)cc(N3CC(C(=O)N4CC(CN5Cc6cc7c(cc6C5)C(=O)N(C5CCC(=O)NC5=O)C7=O)C4)C3)cc2F)N1CC(F)F (stereo partly drawn) [E 230, 6-((1-(1-(4-((1R,3R)-2-(2,2-difluoroethyl)-3-methyl-2,3,4,9-tetrahydro-1H-pyrido[3,4-b]indol-1-yl)-3,5-difluorophenyl)azetidine-3-carbonyl)azetidin-3-yl)methyl)-2-(2,6-dioxopiperidin-3-yl)-6,7-dihydropyrrolo[3,4-f]isoindole-1,3(2H,5H)-dione]		10 to 100
C[C@@H]1Cc2c([nH]c3ccccc23)[C@@H](c2ccc(C3=CCC(C(=O)N4CCC(N5Cc6cc7c(cc6C5)C(=O)N(C5CCC(=O)NC5=O)C7=O)CC4)CC3)cc2)N1CC(F)F (stereo partly drawn) [E 316, 6-(1-(4′-((1R,3R)-2-(2,2-difluoroethyl)-3-methyl-2,3,4,9-tetrahydro-1H-pyrido[3,4-b]indol-1-yl)-2,3,4,5-tetrahydro-[1,1′-biphenyl]-4-carbonyl)piperidin-4-yl)-2-(2,6-dioxopiperidin-3-yl)-6,7-dihydropyrrolo[3,4-f]isoindole-1,3(2H,5H)-dione]		> 100
O=C1CCC(N2C(=O)c3cc4c(cc3C2=O)CN(Cc2cnc(N3CC(Oc5ccc([C@@H]6c7ccc(O)cc7CC[C@@H]6c6ccccc6)cc5)C3)nc2)C4)C(=O)N1 (stereo partly drawn) [E330, 2-(2,6-dioxopiperidin-3-yl)-6-((2-(3-(4-((1R,2S)-6-hydroxy-2-phenyl-1,2,3,4-tetrahydronaphthalen-1-yl)phenoxy)azetidin-1-yl)pyrimidin-5-yl)methyl)-6,7-dihydropyrrolo[3,4-f]isoindole-1,3(2H,5H)-dione]		> 100
O=C1CCC(N2Cc3cc4c(cc3C2=O)CN(CC(=O)N2CCC3(C2)CN(c2ccc([C@@H]5c6ccc(O)cc6CC[C@@H]5c5ccccc5)cc2)C3)C4)C(=O)N1 (mixture of isomers) [E 6, rac-3-(6-(2-(2-(4-((1R,2S)-6-hydroxy-2-phenyl-1,2,3,4-tetrahydronaphthalen-1-yl)phenyl)-2,6-diazaspiro[3.4]octan-6-yl)-2-oxoethyl)-1-oxo-3,5,6,7-tetrahydropyrrolo[3,4-f]isoindol-2(1H)-yl)piperidine-2,6-dione]		< 10
C[C@@H]1Cc2c([nH]c3ccccc23)[C@@H](c2ccc(N3CCC4(CCN(C(=O)CN5Cc6cc7c(cc6C5)C(=O)N(C5CCC(=O)NC5=O)C7=O)CC4)CC3)cc2F)N1CC(F)F (stereo partly drawn) [E 293, 6-(2-(9-(4-((1R,3R)-2-(2,2-difluoroethyl)-3-methyl-2,3,4,9-tetrahydro-1H-pyrido[3,4-b]indol-1-yl)-3-fluorophenyl)-3,9-diazaspiro[5.5]undecan-3-yl)-2-oxoethyl)-2-(2,6-dioxopiperidin-3-yl)-6,7-dihydropyrrolo[3,4-f]isoindole-1,3(2H,5H)-dione]		10 to 100
C[C@@H]1Cc2c([nH]c3ccccc23)[C@@H](c2c(F)cc(N3CCC4(CCN(CC(=O)N5Cc6cc7c(cc6C5)C(=O)N(C5CCC(=O)NC5=O)C7=O)C4)C3)cc2F)N1CC(F)F (stereo partly drawn) [E 76, 6-(2-(7-(4-((1R,3R)-2-(2,2-difluoroethyl)-3-methyl-2,3,4,9-tetrahydro-1H-pyrido[3,4-b]indol-1-yl)-3,5-difluorophenyl)-2,7-diazaspiro[4.4]nonan-2-yl)acetyl)-2-(2,6-dioxopiperidin-3-yl)-6,7-dihydropyrrolo[3,4-f]isoindole-1,3(2H,5H)-dione]		> 100
CCC(=C(c1ccc(O)cc1)c1ccc(N2CCC3(CC2)CN(C(=O)CN2Cc4cc5c(cc4C2)C(=O)N(C2CCC(=O)NC2=O)C5=O)C3)cc1)c1ccccc1 (stereo not shown) [E 242, 2-(2,6-dioxopiperidin-3-yl)-6-(2-(7-(4-(1-(4-hydroxyphenyl)-2-phenylbut-1-en-1-yl)phenyl)-2,7-diazaspiro[3.5]nonan-2-yl)-2-oxoethyl)-6,7-dihydropyrrolo[3,4-f]isoindole-1,3(2H,5H)-dione]		10 to 100
O=C1CCC(N2C(=O)c3cc4c(cc3C2=O)CN(C(=O)CN2CCC3(CCN(c5ccc([C@@H]6c7ccc(O)cc7CC[C@@H]6c6ccccc6)cc5)CC3)C2)C4)C(=O)N1 (mixture of isomers) [E 140, Rac-2-(2,6-dioxopiperidin-3-yl)-6-(2-(8-(4-((1R,2S)-6-hydroxy-2-phenyl-1,2,3,4-tetrahydronaphthalen-1-yl)phenyl)-2,8-diazaspiro[4.5]decan-2-yl)acetyl)-6,7-dihydropyrrolo[3,4-f]isoindole-1,3(2H,5H)-dione]		> 100
